Test results from patent publication US20020123514A1, “Treatment of diabetes with thiazolidinedione and alpha-glucosidase inhibitor” (SmithKline Beecham plc, priority 1997, published 2002).

Experiment: Pharmacokinetic interaction study: single oral dose of Compound (I) alone and coadministered with acarbose
Assay type: in vivo, healthy volunteers
Procedure: This study investigated whether administration of acarbose (A) alters the PK of co-administered Compound (I). Sixteen healthy volunteers (24-59 yo) received a single oral dose of Compound (I) (8 mg) on Day 1, followed by 7 days of repeat dosing with A (100 mg tid with meals). On Day 8, a single oral dose of Compound (I) was coadministered with the morning dose of A. PK profiles following Compound (I) dosing on Days 1 and 8 were compared. […] PK data and point estimates [95% confidence intervals] for Compound (I)+A: Compound (I) alone were analyzed.

[1] = human, in vivo, Compound (I) alone, single oral dose 8 mg, Day 1, healthy volunteers

Row | effect on Compound (I) clearance (acarbose 100 mg tid coadministered, changes small, not likely clinically relevant) | AUC(0-inf) [1] [ng·h/mL] | Cmax [1] [ng/mL] | half-life (human, in vivo, Compound (I) alone, single oral dose 8 mg, Day 1, healthy volunteers, read-out: T½ (converted)) [h] | Tmax (human, in vivo, Compound (I) alone, single oral dose 8 mg, Day 1, median (range)) [h] | SMILES
1 | slightly increase | – | – | – | – | C[C@H]1O[C@H](O[C@H]2[C@H](O)[C@@H](O)[C@@H](O[C@H]3[C@H](O)[C@@H](O)C(O)O[C@@H]3CO)O[C@@H]2CO)[C@H](O)[C@@H](O)[C@@H]1N[C@H]1C=C(CO)[C@@H](O)[C@H](O)[C@H]1O (some centres unmarked) [acarbose, reference compound]
2 | – | 2790 | 428 | 4.93 | 1.48 | CN(CCOc1ccc(CC2SC(=O)NC2=O)cc1)c1ccccn1 (centres unmarked) [Compound (I), 5-[4-[2-(N-methyl-N-(2-pyridyl)amino)ethoxy]benzyl]thiazolidine-2,4-dione]
